# From patent US9526680B2, “Method for searching for malodor control agent, malodor control agent, and malodor control method” (Kao Corporation, priority 2010, dated 2016)
# Columns and labels:
# OR51I2 = target: T1, OR51I2 (Homo sapiens, UniProt Q9H344); assay: Luciferase reporter gene assay, OR51I2 expressed in HEK293 cells; type: cell-based
# T1 construct: expressed in transfected cells; host or cells: HEK293
# T1 sequence (Q9H344 1-312): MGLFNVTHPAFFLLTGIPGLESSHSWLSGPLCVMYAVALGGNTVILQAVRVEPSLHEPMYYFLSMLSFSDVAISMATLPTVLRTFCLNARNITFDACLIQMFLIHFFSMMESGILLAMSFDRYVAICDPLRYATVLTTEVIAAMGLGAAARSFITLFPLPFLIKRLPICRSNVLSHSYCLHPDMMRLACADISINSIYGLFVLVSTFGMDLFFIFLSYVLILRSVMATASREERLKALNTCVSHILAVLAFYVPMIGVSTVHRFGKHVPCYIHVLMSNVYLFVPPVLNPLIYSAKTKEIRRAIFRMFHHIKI
# Procedure: Cloning of human olfactory receptors was performed based on the sequence information registered in GenBank, through PCR with human genomic DNA female (G1521: Promega) as a template. Each of the genes amplified through PCR was inserted into a pENTR vector (Invitrogen) according to an instruction manual. Then, the gene-inserted vector was digested with NotI and AscI, and the obtained fragments were inserted into NotI and AscI sites located downstream of the Flag-Rho tag sequence in the pME18S vector.
# Each of the 350 types of human olfactory receptors was expressed in HEK293 cells. A reaction solution having a composition shown in Table 2 was prepared on a clean bench, and left to stand for 15 minutes. The solution was dispensed to each well of a 96-well plate (BD). Subsequently, […] cells (100 μL, 3×10^5 cells/cm^2) were seeded in each well and cultured for 24 hours in an incubator at 37° C. and under 5% CO2 conditions.
# The olfactory receptor expressed in HEK293 cell was conjugated with cell-intrinsic Gas to activate adenylate cyclase, and thereby the level of intracellular cAMP was increased. For the measurement of the response to odor in this study, the luciferase reporter gene assay was used, in which an increase in the amount of intracellular cAMP was monitored by using the emission value originating from firefly luciferase gene (fluc2P-CRE-hygro) as an indicator. Furthermore, a gene product obtained by fusing renilla luciferase gene in the downstream of CMV promoter (hRluc-CMV) was simultaneously introduced, and this was used as an internal standard for correcting an error in the transgenesis efficiency or the number of cells. The medium was removed from the culture prepared in the above-described section 3) by using a Pipetman, and 75 μl of a solution containing an odor substance (1 mM hexanoic acid or 300 μM nonanoic acid) prepared in CD293 medium (Invitrogen) was added thereto. The cells were cultured for 4 hours in a CO2 incubator, and the luciferase gene was sufficiently expressed in the cells. For the measurement of luciferase activity, the measurement was carried out by using a Dual-Glo™ luciferase assay system (Promega) according to the operation manual of the product. A value calculated by dividing the emission value, derived from a firefly luciferase induced by the stimulation with an odor substance, by the emission value in cells that were not-stimulated with an odor substance, was designated as a fold increase, and used as an index of response intensity.
# OR2W1, OR10A6, OR51E1, OR51I2, and OR51L1 were respectively expressed in HEK293 cells by the same method as that used in Example 1, and a luciferase assay was carried out. In the luciferase assay, hexanoic acid was used as the odorous substance, and test substances were added together with hexanoic acid. The response of the olfactory receptors to hexanoic acid was measured, and a decrease in the receptor response to the addition of test substances was evaluated.
# The inhibition ratios of the receptor response to test substances were calculated as follows. The emission value (Y) obtained from the cells in which the same receptors were introduced but no odor stimulation was conducted, was subtracted from the emission value derived from firefly luciferase (X) induced by odor stimulation with hexanoic acid alone. Similarly, the emission value (Y) obtained from the cells in which no odor stimulation was conducted, was subtracted from the emission value (Z) caused by stimulation with a mixture of hexanoic acid and a test substance. By the following calculation formula, the inhibitory activity of the test substance to receptor response was calculated based on the increment of the emission value (X−Y) caused by stimulation of hexanoic acid alone. Multiple independent experiments were performed in duplicate, and the average of each experiment was obtained. Inhibition ratio (%)={1−(Z−Y)/(X−Y)}×100 […]
# [1] = Sensory evaluation test of isovaleric acid odor inhibition; type: in vivo; details: test substance diluted 1000 times with propylene glycol, 5 panelists (FIG. 7)
# Procedure: (§1) Cotton balls were introduced into a glass bottle (Hakuyo Glass Co., Ltd. No. 11, capacity 110 ml), and hexanoic acid diluted 100 times with propylene glycol, nonanoic acid diluted 10 times with propylene glycol, or isovaleric acid diluted 1000 times with propylene glycol, as a malodor, and a test substance were added dropwise in an amount of […] to the cotton balls. The glass bottle was left to stand overnight at room temperature, and the odor molecules were sufficiently volatilized in the glass bottle. A sensory evaluation test was carried out by a panel of three panelists (5 panelists for isovaleric acid), and while the intensity of odor in the case of adding dropwise the malodor alone was rated as 5, the intensity of the malodor in the case of incorporating a test substance was evaluated on the basis of a system of 20 grades from 0 point to 10 points (0.5 points per grade). […]
# [2] = Sensory evaluation test of nonanoic acid odor inhibition; type: in vivo; details: test substance diluted 10 times with propylene glycol (FIG. 6)
# Procedure: as §1
# [3] = Sensory evaluation test of cresol odor inhibition (specificity); type: in vivo; details: cresol and test substance each diluted 100 times with propylene glycol (FIG. 8)
# Procedure: Cotton balls were introduced into a glass bottle (Hakuyo Glass Co., Ltd. No. 11, capacity 110 ml), and hexanoic acid diluted 100 times with propylene glycol, nonanoic acid diluted 10 times with propylene glycol, or isovaleric acid diluted 1000 times with propylene glycol, as a malodor, and a test substance were added dropwise in an amount of […] to the cotton balls. The glass bottle was left to stand overnight at room temperature, and the odor molecules were sufficiently volatilized in the glass bottle. A sensory evaluation test was carried out by a panel of three panelists (5 panelists for isovaleric acid), and while the intensity of odor in the case of adding dropwise the malodor alone was rated as 5, the intensity of the malodor in the case of incorporating a test substance was evaluated on the basis of a system of 20 grades from 0 point to 10 points (0.5 points per grade).
# In the experiment, cresol diluted 100 times with propylene glycol was used as the malodor, and florhydral diluted 100 times with propylene glycol was used as the test substance.
smiles,measurement,setting,value
"CC(C)c1cccc(C(C)CC=O)c1 (centres unmarked) [Florhydral, 3-(3-isopropylphenyl)-butyraldehyde]",Inhibition of OR51I2 response to hexanoic acid (in words),"OR51I2; 1 mM hexanoic acid, test substance 3, 10, 30, 100, 300 μM (FIG. 4)",in a concentration-dependent manner
same,Inhibition ratio of OR51I2 response,"OR51I2; response to hexanoic acid, test substance added together with hexanoic acid, HEK293",1 (Inhibition ratio: 50% or higher)
same,Inhibition of isovaleric acid odor (in words),[1],the odors were also inhibited
same,Inhibition of nonanoic acid odor (in words),[2],the odors were also inhibited
same,Inhibition of cresol odor (in words),[3],not inhibited
